Assay results as given in the NIST ThermoML archive (doi:10.1021/je0301794).

How the values were obtained:
[1] = xn = mol fraction of the nth substance listed; settings: 101.3 kPa, Liquid
[2] = excess molar enthalpy (molar enthalpy of mixing); xn = mol fraction of the nth substance listed; settings: 318.15 K, 101.3 kPa, Liquid

CCCCCCCCC [nonane] + COC(=O)OC
[1]
Settings	mass density [kg/m3]
293.15 K, x2 = 0	717.7
293.15 K, x2 = 0.0444	724.2
293.15 K, x2 = 0.0909	731.4
293.15 K, x2 = 0.1838	747.3
293.15 K, x2 = 0.28	766.3
293.15 K, x2 = 0.3783	789
293.15 K, x2 = 0.4778	815.8
293.15 K, x2 = 0.5789	847.5
293.15 K, x2 = 0.6816	885.9
293.15 K, x2 = 0.7851	932.5
293.15 K, x2 = 0.8921	991.9
293.15 K, x2 = 0.9461	1028.3
298.15 K, x2 = 0	713.9
298.15 K, x2 = 0.0247	717.5
298.15 K, x2 = 0.083	726.1
298.15 K, x2 = 0.1221	732.4
298.15 K, x2 = 0.1812	742.6
298.15 K, x2 = 0.2278	751.4
298.15 K, x2 = 0.317	770
298.15 K, x2 = 0.3986	789.4
298.15 K, x2 = 0.4701	808.5
298.15 K, x2 = 0.5281	825.7
298.15 K, x2 = 0.601	849.8
298.15 K, x2 = 0.6553	869.8
298.15 K, x2 = 0.7064	890.4
298.15 K, x2 = 0.7517	910.5
298.15 K, x2 = 0.7982	933
298.15 K, x2 = 0.8404	955.5
298.15 K, x2 = 0.8725	973.9
298.15 K, x2 = 0.9073	995.7
298.15 K, x2 = 0.9371	1015.5
298.15 K, x2 = 0.9711	1040.4
303.15 K, x2 = 0	710.1
303.15 K, x2 = 0.0444	716.3
303.15 K, x2 = 0.0909	723.3
303.15 K, x2 = 0.1838	738.9
303.15 K, x2 = 0.28	757.5
303.15 K, x2 = 0.3783	779.7
303.15 K, x2 = 0.4778	805.9
303.15 K, x2 = 0.5789	837
303.15 K, x2 = 0.6816	874.8
303.15 K, x2 = 0.7851	920.7
303.15 K, x2 = 0.8921	979.7
303.15 K, x2 = 0.9461	1015.6
313.15 K, x2 = 0	702.2
313.15 K, x2 = 0.0444	708.3
313.15 K, x2 = 0.0909	715.1
313.15 K, x2 = 0.1838	730.4
313.15 K, x2 = 0.28	748.7
313.15 K, x2 = 0.3783	770.5
313.15 K, x2 = 0.4778	796
313.15 K, x2 = 0.5789	826.7
313.15 K, x2 = 0.6816	864
313.15 K, x2 = 0.7851	909.4
313.15 K, x2 = 0.8921	967.3
313.15 K, x2 = 0.9461	1002.8
318.15 K, x2 = 0	698.1
318.15 K, x2 = 0.0409	703.8
318.15 K, x2 = 0.0763	709
318.15 K, x2 = 0.1089	714
318.15 K, x2 = 0.1249	716.6
318.15 K, x2 = 0.1452	719.9
318.15 K, x2 = 0.1957	728.5
318.15 K, x2 = 0.2309	735
318.15 K, x2 = 0.3153	751.7
318.15 K, x2 = 0.3894	768.3
318.15 K, x2 = 0.4732	789.6
318.15 K, x2 = 0.5442	810.1
318.15 K, x2 = 0.6088	831.2
318.15 K, x2 = 0.6356	840.8
318.15 K, x2 = 0.711	870.1
318.15 K, x2 = 0.761	891.8
318.15 K, x2 = 0.787	904
318.15 K, x2 = 0.8304	926
318.15 K, x2 = 0.8802	954.1
318.15 K, x2 = 0.9335	987.7
318.15 K, x2 = 0.9414	993.1
318.15 K, x2 = 0.972	1015

[2]
Settings	excess molar enthalpy [kcal/mol]
x2 = 0	0
x2 = 0.1291	0.24
x2 = 0.2483	0.396
x2 = 0.3498	0.489
x2 = 0.4426	0.538
x2 = 0.5099	0.549
x2 = 0.573	0.55
x2 = 0.627	0.533
x2 = 0.6622	0.515
x2 = 0.6743	0.509
x2 = 0.7043	0.49
x2 = 0.748	0.455
x2 = 0.7814	0.427
x2 = 0.8236	0.378
x2 = 0.8663	0.316
x2 = 0.9069	0.25
x2 = 0.9415	0.18
x2 = 0.9752	0.098
